The source of these data is publication PMC11547576, “Identification of a New Promising BAG3 Modulator Featuring the Imidazopyridine Scaffold” (Molecules, 2024).

In one experiment the test system is caspase 9. Description: Caspase 9 determination by flow cytometry. The format is cell-based, human. Particulars: HeLa cells, 72 h, 50, 30 and 20 µM, vs control. On the procedure:
Furthermore, we investigated the expressions of caspases, key mediators of programmed cell death, in HeLa cells treated with compound 10 at the same concentrations used in the previous assays. […] To further confirm the pro-apoptotic mechanism induced by compound 10, Western blotting was performed to measure the expression and cleavage of caspase 3 [38, 39].
HeLa cells were seeded into 6-well plates (2.5 × 10^5 cells/well) and allowed to adhere for 24 h. The cells were then treated for 72 h with compound 10 at concentrations of 20, 30, and 50 µM, as well as with 0.1% DMSO negative (control), to assess caspase 3 and caspase 9 levels. After treatment, cells were collected, washed with PBS, and incubated at 4 °C first with a fixing buffer (containing 1% formaldehyde and 1% FBS in PBS) for 20 min, followed by permeabilization with fix perm solution (fixing buffer containing 0.1% Triton X-100) for 30 min. Next, the cells were incubated with anti-caspase 3 (1:500; SC-7272, Santa Cruz, CA, USA) and anti-caspase 9 (1:50; BS-0049R, Bioss Antibodies, Woburn, MA, USA) antibodies for 30 min at 4 °C. […] Cell fluorescence was then evaluated using a fluorescence-activated cell sorter (FACSscan, Becton Dickinson, Milan, Italy) and analyzed with Cell Quest software (4.0, Becton Dickinson, North Ryde, Australia). […]
In general terms: In flow cytometry, cells or beads pass a laser one at a time.

The next experiment relates to HeLa cells. The experiment is described as follows: Annexin V-FITC/PI staining apoptosis assay (FACS). Conditions: 72 h. The format is cell-based, human. On the procedure:
Given BAG3’s well-documented anti-apoptotic role, annexin V-FITC/PI staining was performed to evaluate the effects of compound 10 on cell apoptosis. […] Specifically, at 50 µM, 81.0 ± 3.89% of the cells were apoptotic (p < 0.001 vs. Ctrl); at 30 µM, 70.5 ± 4.56% were apoptotic (p < 0.01 vs. Ctrl); and at 20 µM, 51.5 ± 2.23% were apoptotic (p < 0.05 vs. Ctrl) (Figure 3A,B).
Apoptosis of the cells was assessed using the Annexin V-FITC/PI reagents. Hela cells (20 × 10^3) were seeded into 24-well plates and incubated for 72 h with compound 10. After treatment, the collected cells were resuspended in a 100 μL assay buffer, then 5 μL Annexin V-FITC and 1 μL PI reagents were added following an incubation for 20 min at RT according to the manufacturer’s protocol (Dead Cell Apoptosis Kits with Annexin V for Flow Cytometry, Thermo Fisher Scientific). The cells were analyzed with a Becton Dickinson FACScan flow cytometer using the Cell Quest software, version 4 (Franklin Lakes, NJ, USA). See Supplementary Materials for the data plots (Figure S54).

In the case of `CC(C)Nc1c(-c2ccccc2Br)nc2ccc(Cl)cn12` [Compound 10, 2-(2-bromophenyl)-6-chloro-N-isopropylimidazo[1,2-a]pyridin-3-amine], in the experiment on caspase 9, the “activation of caspase 9” value is given as “pronounced, dose-dependent activation”. For the same molecule, the apoptotic cells in the experiment on HeLa cells (20 µM) was determined as 51.5 ± 2.23%; in the experiment on HeLa cells (30 µM), 70.5 ± 4.56%; with HeLa cells (50 µM), 81.0 ± 3.89%.
